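Cells were grown in 96-well plates and exposed to each compound for 48 hours at five concentrations; endpoints were interpolated linearly between bracketing concentrations, or set to the highest concentration if not reached. At the TGI there is no net growth.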
Columns and labels:
Test in all cases: growth of human tumour cells (NCI), 48 h
786-0 renal = tested on: 786-0 renal
A549 NSCLC = tested on: A549 NSCLC
ACHN renal = tested on: ACHN renal
BT-549 breast = tested on: BT-549 breast
CAKI-1 renal = tested on: CAKI-1 renal
CCRF-CEM leukemia = tested on: CCRF-CEM leukemia
COLO 205 colon = tested on: COLO 205 colon
DU-145 prostate = tested on: DU-145 prostate
EKVX NSCLC = tested on: EKVX NSCLC
HCT-116 colon = tested on: HCT-116 colon
HCT-15 colon = tested on: HCT-15 colon
HOP-92 NSCLC = tested on: HOP-92 NSCLC
HS 578T breast = tested on: HS 578T breast
HT29 colon = tested on: HT29 colon
IGROV1 ovarian = tested on: IGROV1 ovarian
K-562 leukemia = tested on: K-562 leukemia
KM12 colon = tested on: KM12 colon
M14 melanoma = tested on: M14 melanoma
MALME-3M melanoma = tested on: MALME-3M melanoma
MCF7 breast = tested on: MCF7 breast
MDA-MB-231 breast = tested on: MDA-MB-231 breast
MDA-MB-435 = tested on: MDA-MB-435
MDA-N = tested on: MDA-N
MOLT-4 leukemia = tested on: MOLT-4 leukemia
NCI-H226 lung = tested on: NCI-H226 lung
NCI-H23 lung = tested on: NCI-H23 lung
NCI-H460 lung = tested on: NCI-H460 lung
NCI-H522 lung = tested on: NCI-H522 lung
NCI/ADR-RES ovarian = tested on: NCI/ADR-RES ovarian
OVCAR-4 ovarian = tested on: OVCAR-4 ovarian
OVCAR-5 ovarian = tested on: OVCAR-5 ovarian
OVCAR-8 ovarian = tested on: OVCAR-8 ovarian
PC-3 prostate = tested on: PC-3 prostate
RPMI-8226 leukemia = tested on: RPMI-8226 leukemia
RXF 393 renal = tested on: RXF 393 renal
SF-268 CNS = tested on: SF-268 CNS
SF-295 CNS = tested on: SF-295 CNS
SF-539 CNS = tested on: SF-539 CNS
SK-MEL-2 melanoma = tested on: SK-MEL-2 melanoma
SK-MEL-5 melanoma = tested on: SK-MEL-5 melanoma
SK-OV-3 ovarian = tested on: SK-OV-3 ovarian
SN12C renal = tested on: SN12C renal
SNB-19 CNS = tested on: SNB-19 CNS
SNB-75 CNS = tested on: SNB-75 CNS
SW-620 colon = tested on: SW-620 colon
T-47D breast = tested on: T-47D breast
TK-10 renal = tested on: TK-10 renal
U251 CNS = tested on: U251 CNS
UACC-257 melanoma = tested on: UACC-257 melanoma
UACC-62 melanoma = tested on: UACC-62 melanoma
UO-31 renal = tested on: UO-31 renal

Measured: TGI

NNC(=O)c1cc(=O)[nH][nH]1
> 100 µM: 786-0 renal | A549 NSCLC | ACHN renal | BT-549 breast | CAKI-1 renal | CCRF-CEM leukemia | COLO 205 colon | DU-145 prostate | EKVX NSCLC | HCT-116 colon | HCT-15 colon | HOP-92 NSCLC | HS 578T breast | HT29 colon | IGROV1 ovarian | K-562 leukemia | KM12 colon | M14 melanoma | MALME-3M melanoma | MCF7 breast | MDA-MB-231 breast | MDA-MB-435 | MDA-N | MOLT-4 leukemia | NCI-H226 lung | NCI-H23 lung | NCI-H460 lung | NCI-H522 lung | NCI/ADR-RES ovarian | OVCAR-4 ovarian | OVCAR-5 ovarian | OVCAR-8 ovarian | PC-3 prostate | RPMI-8226 leukemia | RXF 393 renal | SF-268 CNS | SF-295 CNS | SF-539 CNS | SK-MEL-2 melanoma | SK-MEL-5 melanoma | SK-OV-3 ovarian | SN12C renal | SNB-19 CNS | SNB-75 CNS | SW-620 colon | T-47D breast | TK-10 renal | U251 CNS | UACC-257 melanoma | UACC-62 melanoma | UO-31 renal

Reference: PubChem BioAssay (NCI)
